According to patent US20260355196A1, “INHIBITORS AND DEGRADERS OF PIP4K PROTEIN” (Larkspur Biosciences, Inc., priority 2023, published 2026):

target: T1, PIP4K2C (Homo sapiens, UniProt Q8TBX8); assay: HiBiT PIP4K2C degradation assay in MOLT-4 cells (endogenous PIP4K2C C-terminally tagged with HiBiT); format: cell-based; set-up: untagged in primary human PBMCs and monocyte-derived dendritic cells; conditions: 6 hours of incubation time, rather than 24 hours; MOLT-4, top concentration 10 micromolar; read-out: HiBIT-degradation MOLT4 PIP4k2C DC50 (6 hours, marked *)
T1 sequence (Q8TBX8 1-421): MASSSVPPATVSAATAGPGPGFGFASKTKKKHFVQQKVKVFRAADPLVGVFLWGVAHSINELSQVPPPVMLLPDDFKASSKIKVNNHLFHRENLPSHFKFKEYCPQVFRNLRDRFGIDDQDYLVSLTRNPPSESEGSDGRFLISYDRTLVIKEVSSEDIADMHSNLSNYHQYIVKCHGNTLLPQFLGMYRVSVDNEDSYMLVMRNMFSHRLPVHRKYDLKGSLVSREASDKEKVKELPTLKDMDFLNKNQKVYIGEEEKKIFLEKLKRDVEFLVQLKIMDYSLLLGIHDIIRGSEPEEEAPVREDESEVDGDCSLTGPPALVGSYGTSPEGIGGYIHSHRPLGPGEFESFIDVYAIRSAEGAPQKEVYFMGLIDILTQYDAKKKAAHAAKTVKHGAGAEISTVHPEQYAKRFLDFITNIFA
Text: Example B-2: HiBiT PIP4K2C degradation assay
Materials: MOLT-4, a human T lymphoblast cell line (see https://www.atcc.org/products/crl-1582, herein incorporated by reference in its entirety), was genetically engineered using CRISPR-Cas9 by Synthego Corporation (Redwood City, CA) to C-terminally tag endogenous PIP4K2C with HiBiT peptide. Following clonal selection, genotype was confirmed by Sanger sequencing. MO LT-4 were maintained using RPMI-1640 medium from Gibco (Grand Island, NY, catalog number 11875-085) supplemented with 10% fetal bovine serum (FBS) from VWR (Philadelphia, PA, catalog number 97068-085). For HiBiT assays the cells were resuspended in RPMI-1640 medium without phenol read from Gibco (Grand Island, NY, catalog number 11835-030) supplemented with 10% FBS. Nano-Glo® HiBiT Lytic Assay System was purchased from Promega (Madison, WI, Catalog number N3030). Cell culture flasks and 384-well microplates were purchased from Corning (Glendale, AZ).
To study PIP4K2C degradation, 384-well plates were plated with a 10-point dose response curve, 3-fold dilution, in duplicate with a top starting concentration of 10 micromolar. Subsequently 22,500 cells were added to each well and incubated at 37 C in 5% C02 for 24 hours or 6 hours. At the end of the incubation time, cells were treated with the Nano-Glo® HiBiT Lytic Detection System following the manufacturer's instructions. Luminescence was measured with a PHERAstar FSX plate reader (BMG Labtech, Cary, NC). The Levenberg-Marquardt algorithm was used to fit a Hill equation to dose-response data to calculate DC50 values (see Table 6).

DC50 | SMILES
< 500 nM | O=C1CCC(Nc2ccc(N3CCC(CN4CCC(C(=O)N[C@H]5CC[C@H](Nc6ncc(F)c(-c7cccc(-n8ccccc8=O)c7)n6)CC5)CC4)CC3)c(F)c2)C(=O)N1 (mixture of isomers) [Compound 433, 1-((1-(4-((2,6-dioxopiperidin-3-yl)amino)-2-fluorophenyl)piperidin-4-yl)methyl)-N-((1r,4r)-4-((5-fluoro-4-(3-(2-oxopyridin-1(2H)-yl)phenyl)pyrimidin-2-yl)amino)cyclohexyl)piperidine-4-carboxamide]
< 500 nM | Cn1nc(C2CCC(=O)NC2=O)c2ccc(C3CCN(CCN4CCC(C(=O)N[C@H]5CC[C@H](Nc6ncc(F)c(-c7cccc(-n8ccccc8=O)c7)n6)CC5)CC4)CC3)cc21 (mixture of isomers) [Compound 534, 1-(2-(4-(3-(2,6-dioxopiperidin-3-yl)-1-methyl-1H-indazol-6-yl)piperidin-1-yl)ethyl)-N-((1r,4r)-4-((5-fluoro-4-(3-(2-oxopyridin-1(2H)-yl)phenyl)pyrimidin-2-yl)amino)cyclohexyl)piperidine-4-carboxamide]

same assay, conditions: 24 hours incubation, MOLT-4, top concentration 10 micromolar; read-out: HiBIT-degradation MOLT4 PIP4k2C 24 hours DC50

SMILES | DC50
Cn1c(=O)n(C2CCC(=O)NC2=O)c2ccc(C3CCN(CCN4CCN(C(=O)[C@H]5CCC[C@@H](Nc6ncc(Cl)c(-c7cccc(-c8ccccc8)c7)n6)C5)CC4)CC3)cc21 (relative stereo) [Compound 49, cis-3-(5-(1-(2-(4-(3-((4-([1,1′-biphenyl]-3-yl)-5-chloropyrimidin-2-yl)amino)cyclohexane-1-carbonyl)piperazin-1-yl)ethyl)piperidin-4-yl)-3-methyl-2-oxo-2,3-dihydro-1H-benzo[d]imidazol-1-yl)piperidine-2,6-dione] | < 500 nM
Cn1c(=O)n(C2CCC(=O)NC2=O)c2ccc(C3CCN(CC(=O)N4CCN(C(=O)[C@H]5CCC[C@@H](Nc6ncc(Cl)c(-c7cccc(-c8ccccc8)c7)n6)C5)CC4)CC3)cc21 (relative stereo) [Compound 51, cis-3-(5-(1-(2-(4-(3-((4-([1,1′-biphenyl]-3-yl)-5-chloropyrimidin-2-yl)amino)cyclohexane-1-carbonyl)piperazin-1-yl)-2-oxoethyl)piperidin-4-yl)-3-methyl-2-oxo-2,3-dihydro-1H-benzo[d]imidazol-1-yl)piperidine-2,6-dione] | < 500 nM
Cn1c(=O)n(C2CCC(=O)NC2=O)c2ccc(C3CCN(CCC4CCN(C(=O)[C@H]5CCC[C@@H](Nc6ncc(Cl)c(-c7cccc(-c8ccccc8)c7)n6)C5)CC4)CC3)cc21 (relative stereo) [Compound 52, cis-3-(5-(1-(2-(1-(3-((4-([1,1′-biphenyl]-3-yl)-5-chloropyrimidin-2-yl)amino)cyclohexane-1-carbonyl)piperidin-4-yl)ethyl)piperidin-4-yl)-3-methyl-2-oxo-2,3-dihydro-1H-benzo[d]imidazol-1-yl)piperidine-2,6-dione] | < 500 nM
O=C1CCC(N2Cc3cc(C4CCN(CC(=O)N5CCN(C(=O)[C@H]6CCC[C@@H](Nc7ncc(Cl)c(-c8cccc(-c9ccccc9)c8)n7)C6)CC5)CC4)ccc3C2=O)C(=O)N1 (relative stereo) [Compound 54, cis-3-(5-(1-(2-(4-(3-((4-([1,1′-biphenyl]-3-yl)-5-chloropyrimidin-2-yl)amino)cyclohexane-1-carbonyl)piperazin-1-yl)-2-oxoethyl)piperidin-4-yl)-1-oxoisoindolin-2-yl)piperidine-2,6-dione] | < 500 nM
O=C1CCC(Nc2ccc(C3CCN(CCN4CCN(C(=O)[C@H]5CCC[C@@H](Nc6ncc(Cl)c(-c7cccc(-c8ccccc8)c7)n6)C5)CC4)CC3)cc2)C(=O)N1 (relative stereo) [Compound 55, cis-3-((4-(1-(2-(4-(3-((4-([1,1′-biphenyl]-3-yl)-5-chloropyrimidin-2-yl)amino)cyclohexane-1-carbonyl)piperazin-1-yl)ethyl)piperidin-4-yl)phenyl)amino)piperidine-2,6-dione] | 500 to 1000 nM
O=C1CCC(Nc2ccc(C3CCN(CC(=O)N4CCN(C(=O)[C@H]5CCC[C@@H](Nc6ncc(Cl)c(-c7cccc(-c8ccccc8)c7)n6)C5)CC4)CC3)cc2)C(=O)N1 (relative stereo) [Compound 57, cis-3-((4-(1-(2-(4-(3-((4-([1,1′-biphenyl]-3-yl)-5-chloropyrimidin-2-yl)amino)cyclohexane-1-carbonyl)piperazin-1-yl)-2-oxoethyl)piperidin-4-yl)phenyl)amino)piperidine-2,6-dione] | < 500 nM
Cn1c(=O)n(C2CCC(=O)NC2=O)c2ccc(C3CCN(C(=O)CN4CCN(C(=O)[C@H]5CCC[C@@H](Nc6ncc(Cl)c(-c7cccc(-c8ccccc8)c7)n6)C5)CC4)CC3)cc21 (relative stereo) [Compound 58, cis-3-(5-(1-(2-(4-(3-((4-([1,1′-biphenyl]-3-yl)-5-chloropyrimidin-2-yl)amino)cyclohexane-1-carbonyl)piperazin-1-yl)acetyl)piperidin-4-yl)-3-methyl-2-oxo-2,3-dihydro-1H-benzo[d]imidazol-1-yl)piperidine-2,6-dione] | < 500 nM
Cn1c(=O)n(C2CCC(=O)NC2=O)c2ccc(C3CCN(C(=O)CC4CCN(C(=O)[C@H]5CCC[C@@H](Nc6ncc(Cl)c(-c7cccc(-c8ccccc8)c7)n6)C5)CC4)CC3)cc21 (relative stereo) [Compound 59, cis-3-(5-(1-(2-(1-(3-((4-([1,1′-biphenyl]-3-yl)-5-chloropyrimidin-2-yl)amino)cyclohexane-1-carbonyl)piperidin-4-yl)acetyl)piperidin-4-yl)-3-methyl-2-oxo-2,3-dihydro-1H-benzo[d]imidazol-1-yl)piperidine-2,6-dione] | < 500 nM
O=C1CCC(N2Cc3cc(C4CCN(C(=O)C5CCN(C(=O)[C@H]6CCC[C@@H](Nc7ncc(Cl)c(-c8cccc(-c9ccccc9)c8)n7)C6)CC5)CC4)ccc3C2=O)C(=O)N1 (relative stereo) [Compound 60, cis-3-(5-(1-(1-(3-((4-([1,1′-biphenyl]-3-yl)-5-chloropyrimidin-2-yl)amino)cyclohexane-1-carbonyl)piperidine-4-carbonyl)piperidin-4-yl)-1-oxoisoindolin-2-yl)piperidine-2,6-dione] | < 500 nM
O=C1CCC(N2Cc3cc(C4CCN(CCN5CCN(C(=O)[C@H]6CCC[C@@H](Nc7ncc(Cl)c(-c8cccc(-c9ccccc9)c8)n7)C6)CC5)CC4)ccc3C2=O)C(=O)N1 (relative stereo) [Compound 61, cis-3-(5-(1-(2-(4-(3-((4-([1,1′-biphenyl]-3-yl)-5-chloropyrimidin-2-yl)amino)cyclohexane-1-carbonyl)piperazin-1-yl)ethyl)piperidin-4-yl)-1-oxoisoindolin-2-yl)piperidine-2,6-dione] | < 500 nM

Continued, values first:

DC50 | SMILES
< 500 nM | O=C1CCC(N2Cc3cc(C4CCN(CCC5CCN(C(=O)[C@H]6CCC[C@@H](Nc7ncc(Cl)c(-c8cccc(-c9ccccc9)c8)n7)C6)CC5)CC4)ccc3C2=O)C(=O)N1 (relative stereo) [Compound 62, cis-3-(5-(1-(2-(1-(3-((4-([1,1′-biphenyl]-3-yl)-5-chloropyrimidin-2-yl)amino)cyclohexane-1-carbonyl)piperidin-4-yl)ethyl)piperidin-4-yl)-1-oxoisoindolin-2-yl)piperidine-2,6-dione]
< 500 nM | O=C1CCC(N2Cc3cc(C4CCN(CC5CCN(C(=O)[C@H]6CCC[C@@H](Nc7ncc(Cl)c(-c8cccc(-c9ccccc9)c8)n7)C6)CC5)CC4)ccc3C2=O)C(=O)N1 (relative stereo) [Compound 63, cis-3-(5-(1-((1-(3-((4-([1,1′-biphenyl]-3-yl)-5-chloropyrimidin-2-yl)amino)cyclohexane-1-carbonyl)piperidin-4-yl)methyl)piperidin-4-yl)-1-oxoisoindolin-2-yl)piperidine-2,6-dione]
< 500 nM | O=C1CCC(Nc2ccc(C3CCN(CCC4CCN(C(=O)[C@H]5CCC[C@@H](Nc6ncc(Cl)c(-c7cccc(-c8ccccc8)c7)n6)C5)CC4)CC3)cc2)C(=O)N1 (relative stereo) [Compound 64, cis-3-((4-(1-(2-(1-(3-((4-([1,1′-biphenyl]-3-yl)-5-chloropyrimidin-2-yl)amino)cyclohexane-1-carbonyl)piperidin-4-yl)ethyl)piperidin-4-yl)phenyl)amino)piperidine-2,6-dione]
